Experimental findings from patent US10449230B2, “Polymyxin derived cell penetrating scaffolds” (The Regents of the University of California, priority 2016, dated 2019) are described below.

Data set [1] concerns CHO-K1 cells. To be noted: CHO-K1, 72 h, concentrations as high as 0.5 μM, FIG. 3A.
Experimental: (§1) Cell titer blue was added and incubated an additional 4 hours. Cell viability was calculated by measuring the fluorescence intensity at 560/590.
Another data set has as its system HEK-293 cells. To be noted: HEK-293, 72 h, concentrations as high as 0.5 μM, FIG. 3B.
In data set [2] the test system is CHO-K1 cells. The data set is described as follows: Cellular uptake of transporter-ST-PE-Cy5 conjugates, flow cytometry (MFI). To be noted: for Uptake of ST-PE-Cy5 incubated with transporter lacking the biotin moiety: CHO-K1, 37° C., 1 h, FIG. 4. In kind it is cell-based, Chinese hamster. As to the method:
The polymyxin derivatives (2.5 μM in PBS) were incubated with ST-PE-Cy5 (0.5 μM in PBS) for 20 min at ambient temperature then diluted with F-12 cell culture medium to give final conjugate solutions.
Cells were plated onto 24-well plates (100 000 cells/well) and grown for 24 h to about 80% confluence. Cells were washed with PBS and incubated with 300 μL of the corresponding conjugate for 1 h at 37° C. under an atmosphere of 5% CO2. Cells were washed twice with PBS, detached with 50 μL of trypsin-EDTA for uptake studies or 100 μL Versene (EDTA) for binding studies, diluted with PBS containing 0.1% BSA, and analyzed by FACS. Cellular uptake was quantified by the mean fluorescence intensity; raw data was interpreted by using FlowJo v8.8.6.
Wild type CHO-K1 cells were incubated with the carrier-ST-PE-Cy5 conjugate for 1 h at 37° C., detached with trypsin/EDTA, and analyzed by flow cytometry (see, e.g., H. O'Dowd, B. Kim, P. Margolis, W. Wang, C. Wu, S. L. Lopez and J. Blais, Tetrahedron Lett., 2007, 48, 2003-2005). […] Cellular uptake of GPMB and PMB conjugated to ST-PE-Cy5 was measured in CHO-K1, HEK-293, and HEP-3B cells. The cells were incubated with conjugate (5 nM) at 37° C. for 1 h. Mean fluorescence intensity was measured by flow cytometry. The background signal from untreated cells was subtracted (FIG. 2).
The mixtures were then added to CHO-K1 cells and incubated at 37° C. for 1 h. Mean fluorescence intensity was measured by flow cytometry and the background signal from untreated cells was subtracted.
Background: In flow cytometry, cells or beads pass a laser one at a time.

The subject of data set [3] is CHO-K1 cells. The data set is described as follows: Cytoplasmic delivery of streptavidin-saporin, CellTiter-Blue viability. It is filed as cell-based, Chinese hamster. To be noted: CHO-K1, four days at 37° C., FIG. 8. As to the method: The biotinylated transporters were incubated with ST-Sap in a 5:1 molar ratio for 20 min at ambient temperature then diluted with F-12 cell culture medium to give final conjugate solutions. CHO-K1 and pgsA cells were incubated with 100 μL of the corresponding conjugate for 4 days at 37° C. under an atmosphere of 5% CO2. CellTiter-Blue (20 μL) was added to the medium and incubated for an additional 4 h to measure viability.
The ability of bPMB and bGPMB to deliver cargo to the cytosol was evaluated by conjugating the transporter to streptavidin-saporin (ST-SAP) and incubating the conjugate with CHO-K1 or pgsA cells at various concentrations. CHO-K1 cells were incubated with transporter-streptavidin-saporin conjugates at 37° C.
Saporin (no streptavidin) was incubated with bPMB or bGPMB for 20 min then diluted to final saporin concentrations and added to CHO-K1 cells. After four days, the number of viable cells was determined using CellTiter-Blue assay and the fluorescence intensity at was measured at 560/590 (FIG. 9A). pgsA cells were incubated with transporter-streptavidin-saporin conjugates at 37° C. After four days, the number of viable cells was determined using CellTiter-Blue and fluorescence intensity was measured at 560/590 (FIG. 9B).
For orientation: Alamar Blue is a resazurin reagent that responds to reducing activity.

For data set [4], the system named is CHO-K1 cells. To be noted: liposomes with 10 mol % carrier, 0.30, 0.50 or 0.70 μg/mL, 1 h at 37° C., FIG. 10.
Experimental: A mixture (30 mg total) of DOPC, DOPE, and cholesterol (73:11:16) was dissolved in chloroform to a final volume of 1 mL and evaporated in a round flask and further dried under high vacuum overnight to form a thin lipid layer. The resulting film was hydrated for 15 min at 37° C. with 1 mL of PBS containing 100 μM Cy5. The mixture was sonicated for 30 s, subjected to six freeze/thaw cycles using a dry ice/acetone bath and a water bath at 37° C. Lastly, the suspension was extruded 17 times through a polycarbonate membrane (pore size 100 nm) at room temperature. Non-encapsulated dye was removed by gravitational gel filtration (Sephadex G-50). Lipid concentration was determined adapting the Stewart method. […] Unincorporated PMB or GPMB was removed via centrifuge gel filtration (Sephadex G-50) (see, e.g., D. W. Fry, J. C. White and I. D. Goldman, Anal. Biochem., 1978, 90, 809-815).
To examine the significance of the cyclic peptide as a delivery module, rather than the lipophilic tail, and the versatility of PMB and GPMB as transporters, liposomes containing the fluorescent Cy5 dye were mixed with 10 mol % PMB or GPMB. Uptake was evaluated using flow cytometry and the size and zeta potential of the liposomes were measured using dynamic light scattering (DLS) and are shown in Table 1 below. […]

Numbered stars: 1 amine (or outer) side, 2 acyl side, 3 side chain; on linkers, the order of the positions; unused ones are H or OH. Bridge positions count the residues as written; N and C are the ends. Square brackets hold non-standard residues; d marks the D form. Peptide text beside a SMILES is read from it. * marks the point of attachment. Biotin = O=C1N[C@H]2[C@H](CS[C@H]2CCCCC(=O)*)N1; X1 = O=C(CCCc1cn(CCOCCOCCOCCN[*:1])nn1)[*:2]; Agb = N=C(N)NCC[C@H](N)C(=O)O; Dab = NCC[C@H](N)C(=O)O

Experimental for HEK-293 cells: as §1

As to `CC(C)C[C@@H]1NC(=O)[C@@H](Cc2ccccc2)NC(=O)[C@H](CCNC(=N)N)NC(=O)[C@@H](NC(=O)[C@H](CCNC(=N)N)NC(=O)[C@@H](NC(=O)[C@H](CCNC(=N)N)NC(=O)CCCc2cn(CCOCCOCCOCCNC(=O)CCCC[C@@H]3SC[C@@H]4NC(=O)N[C@@H]43)nn2)[C@@H](C)O)CCNC(=O)[C@H]([C@@H](C)O)NC(=O)[C@H](CCNC(=N)N)NC(=O)[C@H](CCNC(=N)N)NC1=O` [bGPMB, biotinylated guanidinylated polymyxin B] (Biotin-[X1][Agb]T[Agb][Dab][Agb][dF]L[Agb][Agb]T; lactam 5-C), the “Cytotoxicity (Cell-Titer Blue)” value in the data set with CHO-K1 cells [1] and in the data set on HEK-293 cells was “no cytotoxicity” in each case.

For the compound `CC(C)C[C@@H]1NC(=O)[C@@H](Cc2ccccc2)NC(=O)[C@H](CCN)NC(=O)[C@@H](NC(=O)[C@H](CCN)NC(=O)[C@@H](NC(=O)[C@H](CCN)NC(=O)CCCc2cn(CCOCCOCCOCCNC(=O)CCCC[C@@H]3SC[C@@H]4NC(=O)N[C@@H]43)nn2)[C@@H](C)O)CCNC(=O)[C@H]([C@@H](C)O)NC(=O)[C@H](CCN)NC(=O)[C@H](CCN)NC1=O` [bPMB, biotinylated polymyxin B] (Biotin-[X1][Dab]T[Dab][Dab][Dab][dF]L[Dab][Dab]T; lactam 5-C), the “Cytotoxicity (Cell-Titer Blue)” value in the data set with CHO-K1 cells [1] and in the data set on HEK-293 cells was “no cytotoxicity” in each case.

Turning to Octaarginine [bArg8], in the data set on CHO-K1 cells [2] (CHO-K1, 1 h at 37° C., MFI, FIG. 1A), the “Cellular uptake of ST-PE-Cy5 conjugate compared with bPMB and bGPMB” value is reported as “approximately three-fold higher uptake”. Also, the “LD50 of transporter-streptavidin-saporin conjugate” value with CHO-K1 cells [3] stood at 3.1 nM.

Take Polymyxin B [PMB, reference compound]: the “Uptake of ST-PE-Cy5 incubated with transporter lacking the biotin moiety” value in the data set with CHO-K1 cells [2] is on record as “No enhanced uptake”. The “Delivery of cargo containing liposomes into wild-type CHO cells” value in the data set with CHO-K1 cells [4] is recorded as “enhance delivery”.

On to guanidinylated polymyxin B [GPMB], for which the “Uptake of ST-PE-Cy5 incubated with transporter lacking the biotin moiety” value in the data set with CHO-K1 cells [2] was “No enhanced uptake”. Further, in the data set on CHO-K1 cells [4], the “Delivery of cargo containing liposomes into wild-type CHO cells” value is listed as “enhance delivery”.
